{"source": "paper PMC5218480", "about": "(PLoS ONE, 2017)", "tested_on": "MV-4-11 cells", "assay": "Gene expression microarray analysis (Affymetrix PrimeView) and GSEA", "assay_type": "cell-based, human", "set-up": "RFU PODN (11730768_x_at) / Fold change /veh PODN (11730768_x_at) / RFU LINC00158 (11744669_a_at) / Fold change /veh LINC00158 (11744669_a_at) / RFU DUSP10 (11751237_a_at) / Fold change /veh DUSP10 (11751237_a_at) / RFU ID3 (11757404_x_at) / Fold change /veh ID3 (11757404_x_at) / RFU PLEKHG5 (11737974_s_at) / Fold change /veh PLEKHG5 (11737974_s_at) / RFU LRRC4B (11730491_at) / Fold change /veh LRRC4B (11730491_at) / RFU GIMAP4 (11747438_a_at) / Fold change /veh GIMAP4 (11747438_a_at) / RFU KRT8 (11758183_x_at) / Fold change /veh KRT8 (11758183_x_at) / RFU CNN1 (11734310_a_at) / Fold change /veh CNN1 (11734310_a_at) / RFU VPS37D (11726825_at) / Fold change /veh VPS37D (11726825_at) / RFU C10orf10 (11716522_x_at) / Fold change /veh C10orf10 (11716522_x_at) / RFU KIR2DL2 /// KIR2DL4 /// KIR2DL5A /// KIR2DL5B /// KIR2DS1 /// KIR2DS2 /// KIR2DS3 /// KIR2DS4 /// KIR3DL3 /// KIR3DL3 /// KIR3DS1 (11738374_at) / Fold change /veh KIR2DL2 /// KIR2DL4 /// KIR2DL5A /// KIR2DL5B /// KIR2DS1 /// KIR2DS2 /// KIR2DS3 /// KIR2DS4 /// KIR3DL3 /// KIR3DL3 /// KIR3DS1 (11738374_at) / RFU C1QL1 (11718748_at) / Fold change /veh C1QL1 (11718748_at) / RFU TMPRSS4 (11747572_a_at) / Fold change /veh TMPRSS4 (11747572_a_at) / RFU HAMP (11756126_x_at) / Fold change /veh HAMP (11756126_x_at) / RFU RNFT2 (11725882_a_at) / Fold change /veh RNFT2 (11725882_a_at) / RFU NR4A2 (11747474_a_at) / Fold change /veh NR4A2 (11747474_a_at) / RFU ABCC12 (11746883_a_at) / Fold change /veh ABCC12 (11746883_a_at) / RFU TMEM136 (11760407_x_at) / Fold change /veh TMEM136 (11760407_x_at) / RFU CLDN22 /// WWC2 (11732394_at) / Fold change /veh CLDN22 /// WWC2 (11732394_at) / RFU HLA-DPB1 (11760878_x_at) / Fold change /veh HLA-DPB1 (11760878_x_at) / RFU SPINT1 (11716480_a_at) / Fold change /veh SPINT1 (11716480_a_at) / RFU GAP43 (11754022_s_at) / Fold change /veh GAP43 (11754022_s_at) / RFU A4GNT (11735810_at) / Fold change /veh A4GNT (11735810_at) / RFU PRB3 (11715151_x_at) / Fold change /veh PRB3 (11715151_x_at) / RFU TUBB4B (11761932_at) / Fold change /veh TUBB4B (11761932_at) / RFU CAPN14 (11732068_a_at) / Fold change /veh CAPN14 (11732068_a_at) / RFU TMCC2 (11721928_a_at) / Fold change /veh TMCC2 (11721928_a_at) / RFU IRGQ (11745062_a_at) / Fold change /veh IRGQ (11745062_a_at) / RFU FAM174B (11720279_a_at) / Fold change /veh FAM174B (11720279_a_at) / RFU TMPRSS4 (11748680_a_at) / Fold change /veh TMPRSS4 (11748680_a_at) / RFU FAM212B (11763350_a_at) / Fold change /veh FAM212B (11763350_a_at) / RFU PLEKHG5 (11743358_a_at) / Fold change /veh PLEKHG5 (11743358_a_at) / RFU ZSCAN30 (11745921_a_at) / Fold change /veh ZSCAN30 (11745921_a_at) / RFU CMKLR1 (11741424_a_at) / Fold change /veh CMKLR1 (11741424_a_at) / RFU LOC101060620 /// MAPK8IP1 (11723275_at) / Fold change /veh LOC101060620 /// MAPK8IP1 (11723275_at) / RFU SPTSSB (11747773_x_at) / Fold change /veh SPTSSB (11747773_x_at) / RFU PRSS12 (11739890_at) / Fold change /veh PRSS12 (11739890_at) / RFU BIN1 (11741810_x_at) / Fold change /veh BIN1 (11741810_x_at) / RFU WNT11 (11732464_a_at) / Fold change /veh WNT11 (11732464_a_at) / RFU C10orf10 (11716521_a_at) / Fold change /veh C10orf10 (11716521_a_at) / RFU C5orf56 (11738089_at) / Fold change /veh C5orf56 (11738089_at) / RFU CYB561 (11721691_x_at) / Fold change /veh CYB561 (11721691_x_at) / RFU ANKRD19P (11752326_a_at) / Fold change /veh ANKRD19P (11752326_a_at) / RFU OR2T12 /// OR2T33 /// OR2T8 (11738714_s_at) / Fold change /veh OR2T12 /// OR2T33 /// OR2T8 (11738714_s_at) / RFU VCAN (11748164_a_at) / Fold change /veh VCAN (11748164_a_at) / RFU JSRP1 (11732532_at) / Fold change /veh JSRP1 (11732532_at) / RFU KRTAP10-11 (11738290_x_at) / Fold change /veh KRTAP10-11 (11738290_x_at) / RFU MYO3A (11730013_a_at) / Fold change /veh MYO3A (11730013_a_at) / RFU EBF3 (11725865_a_at) / Fold change /veh EBF3 (11725865_a_at) / RFU CAMK2N1 (11719241_x_at) / Fold change /veh CAMK2N1 (11719241_x_at) / RFU C5orf56 (11738088_a_at) / Fold change /veh C5orf56 (11738088_a_at) / RFU OLFML3 (11715873_a_at) / Fold change /veh OLFML3 (11715873_a_at) / RFU LOC100653217 /// NTM (11731650_a_at) / Fold change /veh LOC100653217 /// NTM (11731650_a_at) / RFU MAPK11 (11762145_a_at) / Fold change /veh MAPK11 (11762145_a_at) / RFU FIZ1 (11724087_x_at) / Fold change /veh FIZ1 (11724087_x_at) / RFU OASL (11726364_x_at) / Fold change /veh OASL (11726364_x_at) / RFU SOX15 (11748057_x_at) / Fold change /veh SOX15 (11748057_x_at) / RFU CD79A (11719716_a_at) / Fold change /veh CD79A (11719716_a_at) / RFU HIST1H1D (11736915_at) / Fold change /veh HIST1H1D (11736915_at) / RFU CASKIN2 (11723855_a_at) / Fold change /veh CASKIN2 (11723855_a_at) / RFU LOC730098 (11760151_x_at) / Fold change /veh LOC730098 (11760151_x_at) / RFU OR4N2 (11742367_at) / Fold change /veh OR4N2 (11742367_at) / RFU PRRT2 (11749266_a_at) / Fold change /veh PRRT2 (11749266_a_at) / RFU SNX32 (11753110_a_at) / Fold change /veh SNX32 (11753110_a_at) / RFU CDHR5 (11726645_a_at) / Fold change /veh CDHR5 (11726645_a_at) / RFU RCAN1 (11760418_a_at) / Fold change /veh RCAN1 (11760418_a_at) / RFU FAM167A (11723789_a_at) / Fold change /veh FAM167A (11723789_a_at) / RFU FAM26E (11764081_at) / Fold change /veh FAM26E (11764081_at) / RFU ISYNA1 (11749810_s_at) / Fold change /veh ISYNA1 (11749810_s_at) / RFU ACY1 (11761880_at) / Fold change /veh ACY1 (11761880_at) / RFU 11764098_at / Fold change /veh 11764098_at / RFU SAMD14 (11745864_x_at) / Fold change /veh SAMD14 (11745864_x_at) / RFU NPB (11741838_a_at) / Fold change /veh NPB (11741838_a_at) / RFU TMPRSS6 (11731388_a_at) / Fold change /veh TMPRSS6 (11731388_a_at) / RFU KRTAP10-2 (11738614_at) / Fold change /veh KRTAP10-2 (11738614_at) / RFU ARHGAP8 /// PRR5-ARHGAP8 (11727945_x_at) / Fold change /veh ARHGAP8 /// PRR5-ARHGAP8 (11727945_x_at) / RFU KRTAP5-7 /// NADSYN1 (11734609_at) / Fold change /veh KRTAP5-7 /// NADSYN1 (11734609_at) / RFU RASL12 (11751679_a_at) / Fold change /veh RASL12 (11751679_a_at) / RFU CDKN2B (11736163_a_at) / Fold change /veh CDKN2B (11736163_a_at) / RFU PRF1 (11729649_at) / Fold change /veh PRF1 (11729649_at) / RFU, ZNF638 /// ZNF638-IT1 / Fold change vs veh, ZNF638 /// ZNF638-IT1 / RFU, PANK3 / Fold change vs veh, PANK3 / RFU, SH3YL1 / Fold change vs veh, SH3YL1 / RFU, ZEB2 / Fold change vs veh, ZEB2 / RFU, NRIP1 / Fold change vs veh, NRIP1 / RFU, PTTG1IP / Fold change vs veh, PTTG1IP / RFU, CAPN2 / Fold change vs veh, CAPN2 / RFU, MED14 / Fold change vs veh, MED14 / RFU, SNORA58 / Fold change vs veh, SNORA58 / RFU, C1orf63 / Fold change vs veh, C1orf63 / RFU, LRRFIP1 / Fold change vs veh, LRRFIP1 / RFU, NDUFAF7 / Fold change vs veh, NDUFAF7 / RFU, SLC12A2 / Fold change vs veh, SLC12A2 / RFU, IBTK / Fold change vs veh, IBTK / RFU, ESF1 / Fold change vs veh, ESF1 / Fold change vs veh, TMEM50B / RFU, TAOK1 / Fold change vs veh, TAOK1 / RFU, ACBD3 / Fold change vs veh, ACBD3 / RFU, TMA16 / Fold change vs veh, TMA16 / RFU, RWDD3 / Fold change vs veh, RWDD3 / RFU, BCAT1 / Fold change vs veh, BCAT1 / RFU, EDEM3 / Fold change vs veh, EDEM3 / RFU, TMEM33 / Fold change vs veh, TMEM33 / RFU, WDR75 / Fold change vs veh, WDR75 / RFU, AHCTF1 / Fold change vs veh, AHCTF1 / RFU, TFRC / Fold change vs veh, TFRC / RFU, ZDHHC17 / Fold change vs veh, ZDHHC17 / RFU, NOM1 / Fold change vs veh, NOM1 / RFU, ARL8B / Fold change vs veh, ARL8B / RFU, ZBTB11 / Fold change vs veh, ZBTB11 / RFU, TAMM41 / Fold change vs veh, TAMM41 / RFU, KIAA1704 /// LOC100996395 / Fold change vs veh, KIAA1704 /// LOC100996395 / RFU, ING1 / Fold change vs veh, ING1 / RFU, TRMT61B / Fold change vs veh, TRMT61B / RFU, FUBP3 / Fold change vs veh, FUBP3 / RFU, TP53 / Fold change vs veh, TP53 / RFU, TNKS2 / Fold change vs veh, TNKS2 / RFU, ZFP14 / Fold change vs veh, ZFP14 / RFU, ACTR2 / Fold change vs veh, ACTR2 / RFU, PPP3R1 / Fold change vs veh, PPP3R1 / RFU, PIK3R1 / Fold change vs veh, PIK3R1 / RFU, HNRNPA1 / Fold change vs veh, HNRNPA1 / RFU, RNF170 / Fold change vs veh, RNF170 / RFU, ZNF28 / Fold change vs veh, ZNF28 / RFU, RNGTT / Fold change vs veh, RNGTT / RFU, OGT / Fold change vs veh, OGT / RFU, BRD1 / Fold change vs veh, BRD1 / RFU, MARS / Fold change vs veh, MARS / RFU, ZNF655 / Fold change vs veh, ZNF655 / RFU, FAHD1 / Fold change vs veh, FAHD1 / RFU, BDP1 / Fold change vs veh, BDP1 / RFU, LRRCC1 / Fold change vs veh, LRRCC1 / RFU, ARID1A / Fold change vs veh, ARID1A / RFU, ZNF146 / Fold change vs veh, ZNF146 / RFU, ZNF330 / Fold change vs veh, ZNF330 / RFU, GPN3 / Fold change vs veh, GPN3 / RFU, C9orf123 / Fold change vs veh, C9orf123 / RFU, N4BP2L2 / Fold change vs veh, N4BP2L2 / RFU, ARFIP1 / Fold change vs veh, ARFIP1 / RFU, FAM179B / Fold change vs veh, FAM179B / RFU, BCL10 / Fold change vs veh, BCL10 / RFU, UHRF1BP1L / Fold change vs veh, UHRF1BP1L / RFU, BET1 / Fold change vs veh, BET1 / RFU, CNOT2 / Fold change vs veh, CNOT2 / RFU, ZNF268 / Fold change vs veh, ZNF268 / Fold change vs veh, ZNF507 / RFU, DGCR2 / Fold change vs veh, DGCR2 / RFU, WDSUB1 / Fold change vs veh, WDSUB1 / Fold change vs veh, HSP90B1 /// MIR3652 / RFU, ADSS / Fold change vs veh, ADSS / RFU, GK / Fold change vs veh, GK / RFU, ZNF148 / Fold change vs veh, ZNF148 / RFU, TAF9 / Fold change vs veh, TAF9 / RFU, SLC1A5 / Fold change vs veh, SLC1A5 / RFU, SLMO2 / Fold change vs veh, SLMO2 / RFU, ABCC4 / Fold change vs veh, ABCC4 / RFU, LOC101060439 /// RAP1B / Fold change vs veh, LOC101060439 /// RAP1B / RFU, RFX7 / Fold change vs veh, RFX7 / RFU, GTPBP10 / Fold change vs veh, GTPBP10 / RFU, CNEP1R1 / Fold change vs veh, CNEP1R1 / RFU, BIVM-ERCC5 /// ERCC5 / Fold change vs veh, BIVM-ERCC5 /// ERCC5 / RFU, ILF3 / Fold change vs veh, ILF3 / RFU 11762660_at / Fold change /veh 11762660_at / RFU VCAN (11757783_s_at) / Fold change /veh VCAN (11757783_s_at) / RFU DDX43 (11728927_at) / Fold change /veh DDX43 (11728927_at) / RFU KRT8 (11758188_x_at) / Fold change /veh KRT8 (11758188_x_at) / RFU NKD1 (11759106_at) / Fold change /veh NKD1 (11759106_at) / RFU SRD5A1 (11742802_a_at) / Fold change /veh SRD5A1 (11742802_a_at) / RFU TPSAB1 /// TPSB2 (11721975_s_at) / Fold change /veh TPSAB1 /// TPSB2 (11721975_s_at) / RFU GSTM3 (11746129_a_at) / Fold change /veh GSTM3 (11746129_a_at) / RFU IL23R (11737362_x_at) / Fold change /veh IL23R (11737362_x_at) / RFU TMEM51 (11727254_a_at) / Fold change /veh TMEM51 (11727254_a_at) / RFU PIWIL2 (11732686_x_at) / Fold change /veh PIWIL2 (11732686_x_at) / RFU ORM1 (11744905_x_at) / Fold change /veh ORM1 (11744905_x_at) / RFU CCDC152 (11743942_at) / Fold change /veh CCDC152 (11743942_at) / RFU ECM1 (11717891_a_at) / Fold change /veh ECM1 (11717891_a_at) / RFU IL23R (11748794_a_at) / Fold change /veh IL23R (11748794_a_at) / RFU TNFAIP8L3 (11732012_x_at) / Fold change /veh TNFAIP8L3 (11732012_x_at) / RFU MBOAT4 (11741988_at) / Fold change /veh MBOAT4 (11741988_at) / RFU 11764193_at / Fold change /veh 11764193_at / RFU TMEM53 (11763286_at) / Fold change /veh TMEM53 (11763286_at) / RFU MAGEB2 (11727129_at) / Fold change /veh MAGEB2 (11727129_at) / RFU TMEM200A (11744735_a_at) / Fold change /veh TMEM200A (11744735_a_at) / RFU CCDC152 (11751479_a_at) / Fold change /veh CCDC152 (11751479_a_at) / RFU FAM211A (11726209_a_at) / Fold change /veh FAM211A (11726209_a_at) / RFU RGS16 (11746705_a_at) / Fold change /veh RGS16 (11746705_a_at) / RFU VCAN (11755009_s_at) / Fold change /veh VCAN (11755009_s_at) / RFU RHOB (11743442_s_at) / Fold change /veh RHOB (11743442_s_at) / RFU RGS16 (11720943_a_at) / Fold change /veh RGS16 (11720943_a_at) / RFU RGS16 (11720944_at) / Fold change /veh RGS16 (11720944_at) / RFU, VPS4B / Fold change vs veh, VPS4B / RFU, CREB1 / Fold change vs veh, CREB1 / RFU, DNAJC13 / Fold change vs veh, DNAJC13 / RFU, GNAQ / Fold change vs veh, GNAQ / RFU, CDK5R1 / Fold change vs veh, CDK5R1 / RFU, ZRANB3 / Fold change vs veh, ZRANB3 / RFU, CUL4A / Fold change vs veh, CUL4A / RFU, CCNY / Fold change vs veh, CCNY / RFU, UFL1 / Fold change vs veh, UFL1 / RFU, COG3 / Fold change vs veh, COG3 / RFU, DIAPH2 / Fold change vs veh, DIAPH2 / RFU, SKA2 / Fold change vs veh, SKA2 / RFU, AFF3 / Fold change vs veh, AFF3 / RFU, LMF1 / Fold change vs veh, LMF1 / RFU, IPO11 / Fold change vs veh, IPO11 / RFU, DFFB / Fold change vs veh, DFFB / RFU, FOXP1 / Fold change vs veh, FOXP1 / RFU, CARD8 / Fold change vs veh, CARD8 / RFU, STRN3 / Fold change vs veh, STRN3 / RFU, ADK / Fold change vs veh, ADK / RFU, RASSF2 / Fold change vs veh, RASSF2 / RFU, WIPF1 / Fold change vs veh, WIPF1 / RFU, LARP1B / Fold change vs veh, LARP1B / RFU, RASA1 / Fold change vs veh, RASA1 / RFU, RB1 / Fold change vs veh, RB1 / RFU, PPFIA1 / Fold change vs veh, PPFIA1 / RFU, MAT2A / Fold change vs veh, MAT2A / RFU, CCT5 / Fold change vs veh, CCT5 / RFU, WDR92 / Fold change vs veh, WDR92 / RFU, CUX1 / Fold change vs veh, CUX1 / RFU, TTC7A / Fold change vs veh, TTC7A / RFU, TMEM135 / Fold change vs veh, TMEM135 / RFU, DEPTOR / Fold change vs veh, DEPTOR / RFU, CPM / Fold change vs veh, CPM / RFU, DNAJB6 / Fold change vs veh, DNAJB6 / RFU, CACNA2D3 / Fold change vs veh, CACNA2D3 / RFU, DTX4 / Fold change vs veh, DTX4 / RFU, TFCP2 / Fold change vs veh, TFCP2 / RFU, GMCL1 /// GMCL1P1 / Fold change vs veh, GMCL1 /// GMCL1P1 / RFU, AEBP2 / Fold change vs veh, AEBP2 / RFU, SNHG1 /// SNORD22 /// SNORD25 /// SNORD26 /// SNORD27 /// SNORD28 /// SNORD29 /// SNORD31 / Fold change vs veh, SNHG1 /// SNORD22 /// SNORD25 /// SNORD26 /// SNORD27 /// SNORD28 /// SNORD29 /// SNORD31 / Fold change (Aza/veh), C12orf56 (ProbeSet 11735607_a_at) / Fold change (ACY-1035/veh), C12orf56 (ProbeSet 11735607_a_at) / Fold change (Aza/veh), FGFR1OP (ProbeSet 11751329_s_at) / Fold change (ACY-1035/veh), FGFR1OP (ProbeSet 11751329_s_at) / Fold change (Aza/veh), VPS36 (ProbeSet 11739960_a_at) / Fold change (ACY-1035/veh), VPS36 (ProbeSet 11739960_a_at) / RFU SYPL1 (11715823_x_at) / Fold change /veh SYPL1 (11715823_x_at) / RFU IGFBP7 (11715501_s_at) / Fold change /veh IGFBP7 (11715501_s_at) / RFU REEP3 (11722064_at) / Fold change /veh REEP3 (11722064_at) / RFU IGLL1 (11728026_x_at) / Fold change /veh IGLL1 (11728026_x_at): dose or concentration left out as unconfirmed", "settings": "MV-4-11 cells, 48 hours"}
{"smiles": "Nc1ncn([C@@H]2O[C@H](CO)[C@@H](O)[C@H]2O)c(=O)n1", "note": "[azacitidine]", "values": [{"measurement": "RFU SOX15 (11748057_x_at)", "result": 12.99, "unit": "RFU"}]}
